{
  "source": "patent US11180474B2",
  "about": "(BRISTOL-MYERS SQUIBB COMPANY, priority 2016, dated 2021)",
  "key": {"[1]": {"tested_on": "TLR7", "assay": "In vivo mouse TLR7 PD model (gardiquimod challenge, plasma IL-6)", "conditions": "oral", "experimental": "(§1) In Vivo Mouse TLR7 and TLR9 PD Model:\n(§2) Adult male C57BL/6 mice were used for the experiments. Mice (7 to 10 per group) were randomized into different treatment groups based on body weight. Mice from the respective treatment groups were administered orally with vehicle or test compound. Thirty min after the oral administration of vehicle or test compound, mice were challenged with intraperitoneal injection of gardiquimod for TLR7 PD model and CpG-ODN for TLR9 PD model. Ninety minutes after gardiquimod injection and 120 minutes after CpG-ODN injection, mice were bled under isoflurane anaesthesia and plasma IL-6 level was estimated by using commercially available ELISA kit (BD Biosciences). At the end of experiment, mean cytokine data was plotted and one way ANOVA with Dunnett's test was performed to calculate the significance of test compound treated group vs. vehicle control group. Percent inhibition of cytokine induction was calculated for test compound treated group vs vehicle control group."}, "[2]": {"tested_on": "TLR9", "assay": "In vivo mouse TLR9 PD model (CpG-ODN challenge, plasma IL-6)", "conditions": "oral", "experimental": "as §1, §2"}, "[3]": {"tested_on": "MRL/lpr model of Systemic Lupus Erythematosus", "assay": "MRL/lpr model of systemic lupus erythematosus (SLE)", "type": "in vivo, mouse", "conditions": "MRL/lpr mice, oral once daily 8 weeks", "experimental": "MRL/Lpr Model of Systemic Lupus Erythematosus (SLE) Male MRL/lpr mice of 12-14 weeks age were screened and randomized based on the titers of anti-dsDNA antibodies and urinary NGAL (Neutrophil Gelatinase Associated Lipocalin). Mice were treated orally, once daily for 8 weeks with vehicle or test compound. The effect of test compound on disease severity was assessed by measuring end points including proteinuria, urinary-NGAL, anti-dsDNA Ab titer, and lymphadenopathy. These end points were assessed before the start of treatment and after 4 and 8 weeks of treatment. At the end of experiment, all mice were euthanized by CO2 asphyxiation and kidney samples were subjected for histology. At the end of experiment, one way ANOVA with Dunnett's test was performed to calculate the significance of test compound treated group vs. vehicle control group. Percent reduction in disease severity was calculated for each parameter, for test compound treated group vs vehicle control group. A cumulative disease score and the percent reduction in cumulative disease score was calculated by considering the average inhibition in all parameters except lymphadenopathy to reflect the impact on the overall severity of disease progression."}},
  "data": [
    {"smiles": "COc1ccc(-c2[nH]c3ccc(C4CCN(C(=O)CN(C)C)CC4)cc3c2C(C)C)cc1OC", "note": "[Example 209, 1-(4-(2-(3,4-dimethoxyphenyl)-3-isopropyl-1H-indol-5-yl)piperidin-1-yl)-2-(dimethylamino)ethan-1-one]", "values": [
      {"measurement": "% inhibition of IL6", "setting": "[1]; dose 0.001 mg/kg", "value": 11, "unit": "%"},
      {"measurement": "% inhibition of IL6", "setting": "[1]; dose 0.01 mg/kg", "value": 21, "unit": "%"},
      {"measurement": "% inhibition of IL6", "setting": "[1]; dose 0.1 mg/kg", "value": 61, "unit": "%"},
      {"measurement": "% inhibition of IL6", "setting": "[1]; dose 1 mg/kg", "value": 86, "unit": "%"},
      {"measurement": "% inhibition of IL6", "setting": "[2]; dose 1 mg/kg", "value": 29, "unit": "%"},
      {"measurement": "% inhibition of IL6", "setting": "[2]; dose 10 mg/kg", "value": 37, "unit": "%"},
      {"measurement": "% inhibition of IL6", "setting": "[2]; dose 30 mg/kg", "value": 37, "unit": "%"},
      {"measurement": "% inhibition of IL6", "setting": "[2]; dose 100 mg/kg", "value": 51, "unit": "%"},
      {"measurement": "% inhibition Anti-dsDNA antibody titer", "setting": "[3]; dose 1 mg/kg", "value": 44, "unit": "%"},
      {"measurement": "% inhibition Cumulative score", "setting": "[3]; dose 1 mg/kg", "value": 42, "unit": "%"},
      {"measurement": "% inhibition IL-10", "setting": "[3]; dose 1 mg/kg", "value": 10, "unit": "%"},
      {"measurement": "% inhibition IL-12p40", "setting": "[3]; dose 1 mg/kg", "value": 13, "unit": "%"},
      {"measurement": "% inhibition Lymphadenopathy", "setting": "[3]; dose 1 mg/kg", "value": 35, "unit": "%"},
      {"measurement": "% inhibition Proteinuria", "setting": "[3]; dose 1 mg/kg", "value": 46, "unit": "%"},
      {"measurement": "% inhibition Urinary NGAL", "setting": "[3]; dose 1 mg/kg", "value": 36, "unit": "%"},
      {"measurement": "% inhibition Anti-dsDNA antibody titer", "setting": "[3]; dose 2 mg/kg", "value": 57, "unit": "%"},
      {"measurement": "% inhibition Cumulative score", "setting": "[3]; dose 2 mg/kg", "value": 55, "unit": "%"},
      {"measurement": "% inhibition IL-10", "setting": "[3]; dose 2 mg/kg", "value": 22, "unit": "%"},
      {"measurement": "% inhibition IL-12p40", "setting": "[3]; dose 2 mg/kg", "value": 24, "unit": "%"},
      {"measurement": "% inhibition Lymphadenopathy", "setting": "[3]; dose 2 mg/kg", "value": 38, "unit": "%"},
      {"measurement": "% inhibition Proteinuria", "setting": "[3]; dose 2 mg/kg", "value": 57, "unit": "%"},
      {"measurement": "% inhibition Urinary NGAL", "setting": "[3]; dose 2 mg/kg", "value": 52, "unit": "%"},
      {"measurement": "% inhibition Anti-dsDNA antibody titer", "setting": "[3]; dose 5 mg/kg", "value": 67, "unit": "%"},
      {"measurement": "% inhibition Cumulative score", "setting": "[3]; dose 5 mg/kg", "value": 61, "unit": "%"},
      {"measurement": "% inhibition IL-10", "setting": "[3]; dose 5 mg/kg", "value": 36, "unit": "%"},
      {"measurement": "% inhibition IL-12p40", "setting": "[3]; dose 5 mg/kg", "value": 18, "unit": "%"},
      {"measurement": "% inhibition Lymphadenopathy", "setting": "[3]; dose 5 mg/kg", "value": 50, "unit": "%"},
      {"measurement": "% inhibition Proteinuria", "setting": "[3]; dose 5 mg/kg", "value": 61, "unit": "%"},
      {"measurement": "% inhibition Urinary NGAL", "setting": "[3]; dose 5 mg/kg", "value": 54, "unit": "%"},
      {"measurement": "% inhibition Anti-dsDNA antibody titer", "setting": "[3]; dose 7.5 mg/kg", "value": 70, "unit": "%"},
      {"measurement": "% inhibition Cumulative score", "setting": "[3]; dose 7.5 mg/kg", "value": 67, "unit": "%"},
      {"measurement": "% inhibition IL-10", "setting": "[3]; dose 7.5 mg/kg", "value": 36, "unit": "%"},
      {"measurement": "% inhibition IL-12p40", "setting": "[3]; dose 7.5 mg/kg", "value": 27, "unit": "%"},
      {"measurement": "% inhibition Lymphadenopathy", "setting": "[3]; dose 7.5 mg/kg", "value": 58, "unit": "%"},
      {"measurement": "% inhibition Proteinuria", "setting": "[3]; dose 7.5 mg/kg", "value": 68, "unit": "%"},
      {"measurement": "% inhibition Urinary NGAL", "setting": "[3]; dose 7.5 mg/kg", "value": 62, "unit": "%"}
    ]}
  ]
}
